Here are results for 2 molecules from article PMC3810962 (Cancer research, 2012).

Structures are written as SMILES.

In assay [1] the target is T1, STK10 (Homo sapiens, UniProt O94804). In words: ProfilerPro kinase panel, % inhibition at […]. The format is biochemical. Conditions: read-out: Compound / Y27632.
Assay [2] has as its target T2, PKCtheta (Homo sapiens, UniProt Q04759). The assay can be described thus: ProfilerPro kinase panel, % inhibition at […]. The format is biochemical. To be noted: read-out: Compound / Y27632.
Assay [3] deals with T3, ROCK2 (Homo sapiens, UniProt O75116). The assay can be described thus: ProfilerPro kinase panel, % inhibition at […]. The format is biochemical. Conditions: read-out: Compound / OXA-06.
The target of a further assay is T4, ARK5 (Homo sapiens, UniProt O60285).
T4 sequence (O60285 1-661): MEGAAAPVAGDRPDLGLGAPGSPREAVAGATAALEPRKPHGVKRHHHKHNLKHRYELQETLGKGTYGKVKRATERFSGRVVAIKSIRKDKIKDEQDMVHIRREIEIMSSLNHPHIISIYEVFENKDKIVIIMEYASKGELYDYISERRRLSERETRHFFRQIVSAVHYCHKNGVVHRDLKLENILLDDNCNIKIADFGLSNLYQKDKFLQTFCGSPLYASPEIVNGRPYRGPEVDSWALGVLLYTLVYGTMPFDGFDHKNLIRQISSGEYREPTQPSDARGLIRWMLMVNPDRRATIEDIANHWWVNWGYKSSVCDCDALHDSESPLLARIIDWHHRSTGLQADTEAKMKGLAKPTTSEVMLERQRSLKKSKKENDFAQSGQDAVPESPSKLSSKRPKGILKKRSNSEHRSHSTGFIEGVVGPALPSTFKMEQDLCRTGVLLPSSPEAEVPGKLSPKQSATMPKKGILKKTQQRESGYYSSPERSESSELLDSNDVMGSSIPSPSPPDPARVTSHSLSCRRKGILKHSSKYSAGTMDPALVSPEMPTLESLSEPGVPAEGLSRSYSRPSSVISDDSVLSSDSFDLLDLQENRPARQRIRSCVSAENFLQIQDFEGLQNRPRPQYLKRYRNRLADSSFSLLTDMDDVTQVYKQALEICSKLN
In words: biochemical. To be noted: read-out: % inhibition.

The target of the next assay is T5, IKKbeta (Homo sapiens, UniProt O14920).
T5 sequence (O14920 1-756): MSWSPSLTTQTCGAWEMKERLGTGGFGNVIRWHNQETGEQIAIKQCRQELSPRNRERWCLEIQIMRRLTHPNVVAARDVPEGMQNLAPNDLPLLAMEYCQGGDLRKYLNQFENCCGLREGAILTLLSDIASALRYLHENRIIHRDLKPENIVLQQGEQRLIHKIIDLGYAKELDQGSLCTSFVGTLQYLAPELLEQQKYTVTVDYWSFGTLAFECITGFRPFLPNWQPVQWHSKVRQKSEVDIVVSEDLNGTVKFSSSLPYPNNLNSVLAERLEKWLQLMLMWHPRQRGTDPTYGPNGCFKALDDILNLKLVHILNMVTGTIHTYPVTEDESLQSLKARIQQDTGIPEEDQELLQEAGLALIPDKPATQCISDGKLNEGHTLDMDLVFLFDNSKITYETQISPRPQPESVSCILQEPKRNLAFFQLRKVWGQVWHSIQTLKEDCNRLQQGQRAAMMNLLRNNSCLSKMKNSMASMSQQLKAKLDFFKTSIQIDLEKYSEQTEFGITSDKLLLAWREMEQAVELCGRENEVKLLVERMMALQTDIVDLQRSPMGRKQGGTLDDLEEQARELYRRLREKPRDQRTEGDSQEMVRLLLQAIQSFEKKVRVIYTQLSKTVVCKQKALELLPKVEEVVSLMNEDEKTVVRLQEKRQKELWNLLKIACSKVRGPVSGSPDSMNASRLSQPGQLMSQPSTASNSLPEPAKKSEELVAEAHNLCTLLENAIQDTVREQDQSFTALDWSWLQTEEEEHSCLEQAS
In words: biochemical. To be noted: read-out: % inhibition.

The target in the next assay is MNK1 (Homo sapiens, UniProt Q9BUB5). In words: biochemical. Conditions: read-out: % inhibition.
A further assay has as its target T6, MST1 (Homo sapiens, UniProt Q13043).
T6 sequence (Q13043 1-487): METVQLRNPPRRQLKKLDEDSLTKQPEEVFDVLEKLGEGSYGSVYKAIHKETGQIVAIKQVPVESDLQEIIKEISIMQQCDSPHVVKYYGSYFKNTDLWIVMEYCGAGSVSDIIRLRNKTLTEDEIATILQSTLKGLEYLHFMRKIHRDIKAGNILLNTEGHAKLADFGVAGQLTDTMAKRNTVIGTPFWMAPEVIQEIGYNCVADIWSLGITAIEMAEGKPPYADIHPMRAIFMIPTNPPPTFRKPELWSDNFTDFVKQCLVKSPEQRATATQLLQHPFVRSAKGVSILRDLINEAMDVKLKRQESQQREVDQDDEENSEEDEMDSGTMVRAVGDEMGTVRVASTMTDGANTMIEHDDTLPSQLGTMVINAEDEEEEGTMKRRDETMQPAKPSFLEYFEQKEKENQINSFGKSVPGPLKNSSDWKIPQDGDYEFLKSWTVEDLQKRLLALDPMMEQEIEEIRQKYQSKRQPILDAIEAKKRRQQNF
In words: biochemical. Conditions: read-out: % inhibition.

The target in a further assay is PKA (Homo sapiens, UniProt P17612). In words: biochemical. To be noted: read-out: % inhibition.
A further assay deals with PKCbeta1 (Homo sapiens, UniProt P05771). The assay can be described thus: biochemical. Conditions: read-out: % inhibition.
The target of another assay is PKCdelta (Homo sapiens, UniProt Q05655). In words: biochemical. To be noted: read-out: % inhibition.
Another assay addresses T7, PKG (Homo sapiens, UniProt Q13976).
T7 sequence (Q13976 1-671): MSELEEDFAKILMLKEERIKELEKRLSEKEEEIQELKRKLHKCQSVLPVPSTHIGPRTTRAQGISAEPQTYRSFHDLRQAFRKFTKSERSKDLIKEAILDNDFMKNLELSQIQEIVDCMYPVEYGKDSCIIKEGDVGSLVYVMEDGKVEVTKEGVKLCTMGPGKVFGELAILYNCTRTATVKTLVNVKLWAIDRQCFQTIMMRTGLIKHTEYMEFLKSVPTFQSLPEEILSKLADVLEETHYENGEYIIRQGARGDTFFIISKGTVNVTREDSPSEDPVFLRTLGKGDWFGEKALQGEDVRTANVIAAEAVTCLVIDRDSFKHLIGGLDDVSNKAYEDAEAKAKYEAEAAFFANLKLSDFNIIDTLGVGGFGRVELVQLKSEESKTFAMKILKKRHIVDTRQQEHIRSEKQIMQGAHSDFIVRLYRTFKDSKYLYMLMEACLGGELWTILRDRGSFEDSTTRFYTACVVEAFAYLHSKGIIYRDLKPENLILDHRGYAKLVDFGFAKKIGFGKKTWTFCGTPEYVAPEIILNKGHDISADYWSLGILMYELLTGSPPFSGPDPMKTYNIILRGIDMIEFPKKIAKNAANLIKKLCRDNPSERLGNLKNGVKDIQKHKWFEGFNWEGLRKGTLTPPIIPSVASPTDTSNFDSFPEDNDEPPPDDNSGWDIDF
In words: biochemical. To be noted: read-out: % inhibition.

For a further assay, the target named is T8, PKG1b (Homo sapiens, UniProt Q13976).
T8 sequence (Q13976 1-671): T7 sequence (Q13976 1-671)
In words: biochemical. Conditions: read-out: % inhibition.

A further assay deals with T9, PRKX (Homo sapiens, UniProt P51817).
T9 sequence (P51817 1-358): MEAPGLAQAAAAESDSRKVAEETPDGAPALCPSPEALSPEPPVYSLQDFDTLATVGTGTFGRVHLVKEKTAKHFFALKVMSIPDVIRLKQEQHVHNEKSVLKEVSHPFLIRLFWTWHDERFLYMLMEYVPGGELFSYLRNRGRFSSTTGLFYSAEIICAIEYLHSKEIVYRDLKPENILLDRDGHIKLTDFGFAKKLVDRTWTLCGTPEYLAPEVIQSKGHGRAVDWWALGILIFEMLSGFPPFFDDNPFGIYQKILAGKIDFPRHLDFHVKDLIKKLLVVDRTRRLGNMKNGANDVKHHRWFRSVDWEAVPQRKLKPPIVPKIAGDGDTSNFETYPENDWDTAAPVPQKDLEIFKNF
The assay can be described thus: biochemical. Conditions: read-out: % inhibition.

The next assay has as its target RSK1 (Homo sapiens, UniProt Q15418). The assay can be described thus: biochemical. Conditions: read-out: % inhibition.
For a further assay, the target named is RSK3 (Homo sapiens, UniProt Q15349). The assay can be described thus: biochemical. To be noted: read-out: % inhibition.
The target in assay [4] is T10, ROCK1 (Homo sapiens, UniProt Q13464). The assay can be described thus: biochemical. Conditions: read-out: Compound / OXA-06.
Target sequence in this assay (Q13464 2-1354): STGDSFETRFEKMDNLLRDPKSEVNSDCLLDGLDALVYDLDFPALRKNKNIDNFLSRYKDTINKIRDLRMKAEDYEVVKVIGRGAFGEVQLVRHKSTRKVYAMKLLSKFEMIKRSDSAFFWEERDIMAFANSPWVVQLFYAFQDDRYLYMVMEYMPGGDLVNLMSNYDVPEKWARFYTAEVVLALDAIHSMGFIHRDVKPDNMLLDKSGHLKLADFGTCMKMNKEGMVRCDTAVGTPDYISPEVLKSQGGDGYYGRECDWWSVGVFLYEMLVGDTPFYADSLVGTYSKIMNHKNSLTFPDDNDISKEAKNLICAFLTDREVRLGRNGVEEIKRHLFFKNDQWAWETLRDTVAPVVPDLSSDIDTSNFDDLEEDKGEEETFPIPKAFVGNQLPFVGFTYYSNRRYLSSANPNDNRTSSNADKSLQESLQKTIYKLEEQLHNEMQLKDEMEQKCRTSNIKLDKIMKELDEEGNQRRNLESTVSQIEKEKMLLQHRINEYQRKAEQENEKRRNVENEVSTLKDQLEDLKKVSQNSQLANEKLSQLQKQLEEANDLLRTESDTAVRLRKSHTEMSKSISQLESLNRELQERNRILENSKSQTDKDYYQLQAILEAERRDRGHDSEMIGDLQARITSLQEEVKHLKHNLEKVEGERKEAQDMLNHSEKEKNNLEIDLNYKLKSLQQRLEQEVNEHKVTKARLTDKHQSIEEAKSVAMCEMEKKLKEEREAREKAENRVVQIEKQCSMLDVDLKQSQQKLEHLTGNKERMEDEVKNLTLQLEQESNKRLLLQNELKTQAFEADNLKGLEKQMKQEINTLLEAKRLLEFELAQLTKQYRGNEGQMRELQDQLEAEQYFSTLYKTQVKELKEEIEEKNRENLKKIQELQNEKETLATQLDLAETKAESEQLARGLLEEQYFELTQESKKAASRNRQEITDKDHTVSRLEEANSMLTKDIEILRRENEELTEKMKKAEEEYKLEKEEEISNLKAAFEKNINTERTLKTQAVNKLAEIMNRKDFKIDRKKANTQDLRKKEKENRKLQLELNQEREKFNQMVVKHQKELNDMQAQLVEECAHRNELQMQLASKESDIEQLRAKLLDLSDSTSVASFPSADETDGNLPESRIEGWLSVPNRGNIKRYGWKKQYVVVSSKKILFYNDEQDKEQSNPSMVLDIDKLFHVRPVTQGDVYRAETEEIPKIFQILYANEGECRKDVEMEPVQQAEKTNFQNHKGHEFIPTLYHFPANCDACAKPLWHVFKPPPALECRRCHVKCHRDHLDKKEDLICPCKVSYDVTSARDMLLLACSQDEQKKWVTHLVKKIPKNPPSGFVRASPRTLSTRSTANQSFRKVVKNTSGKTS
Assay [5] concerns the target T10, ROCK1. In words: ProfilerPro kinase panel, % inhibition at […]. Conditions: 0.2 µM. The format is biochemical.
Target sequence in this assay (Q13464 2-1354): as above
For assay [6], the target named is T1, STK10. In words: ProfilerPro kinase panel, % inhibition at […]. To be noted: 0.2 µM. It counts as biochemical.
Assay [7] deals with T3, ROCK2. In words: ProfilerPro kinase panel, % inhibition at […]. It counts as biochemical. To be noted: 0.2 µM.
A further assay has as its target T11, PKCepsilon (Homo sapiens, UniProt Q02156).
T11 sequence (Q02156 1-737): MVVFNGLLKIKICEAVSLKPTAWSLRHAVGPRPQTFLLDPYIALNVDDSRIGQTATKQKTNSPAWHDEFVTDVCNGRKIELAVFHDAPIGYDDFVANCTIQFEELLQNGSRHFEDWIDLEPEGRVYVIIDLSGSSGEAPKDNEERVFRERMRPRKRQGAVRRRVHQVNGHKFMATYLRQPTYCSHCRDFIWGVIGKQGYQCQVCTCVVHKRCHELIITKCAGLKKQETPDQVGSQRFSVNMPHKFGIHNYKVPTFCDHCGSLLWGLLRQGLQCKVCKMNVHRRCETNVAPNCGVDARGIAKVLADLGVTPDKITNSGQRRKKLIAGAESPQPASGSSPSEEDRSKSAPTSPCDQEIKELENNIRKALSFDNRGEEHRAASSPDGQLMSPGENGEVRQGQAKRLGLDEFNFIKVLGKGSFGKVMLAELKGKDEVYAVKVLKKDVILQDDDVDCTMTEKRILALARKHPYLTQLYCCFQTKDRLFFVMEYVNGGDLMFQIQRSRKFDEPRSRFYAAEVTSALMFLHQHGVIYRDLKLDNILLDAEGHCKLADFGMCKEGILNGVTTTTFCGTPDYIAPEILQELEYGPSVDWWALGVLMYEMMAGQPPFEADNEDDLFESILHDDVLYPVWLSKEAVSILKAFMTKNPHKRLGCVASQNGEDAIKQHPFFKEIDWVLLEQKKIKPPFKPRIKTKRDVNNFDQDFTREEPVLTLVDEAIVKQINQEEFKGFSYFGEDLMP
In words: biochemical. To be noted: read-out: % inhibition.

The target of assay [8] is T2, PKCtheta. In words: biochemical. Conditions: read-out: % inhibition.
For assay [9], the target named is T10, ROCK1. The assay can be described thus: biochemical. To be noted: read-out: % inhibition.
In assay [10] the target is T3, ROCK2. In words: biochemical. Conditions: read-out: % inhibition.
In another assay the target is RSK2 (Homo sapiens, UniProt P51812). The assay can be described thus: biochemical. Conditions: read-out: % inhibition.
In assay [11] the target is T1, STK10. The assay can be described thus: biochemical. To be noted: read-out: % inhibition.

T1 sequence (O94804 whole entry): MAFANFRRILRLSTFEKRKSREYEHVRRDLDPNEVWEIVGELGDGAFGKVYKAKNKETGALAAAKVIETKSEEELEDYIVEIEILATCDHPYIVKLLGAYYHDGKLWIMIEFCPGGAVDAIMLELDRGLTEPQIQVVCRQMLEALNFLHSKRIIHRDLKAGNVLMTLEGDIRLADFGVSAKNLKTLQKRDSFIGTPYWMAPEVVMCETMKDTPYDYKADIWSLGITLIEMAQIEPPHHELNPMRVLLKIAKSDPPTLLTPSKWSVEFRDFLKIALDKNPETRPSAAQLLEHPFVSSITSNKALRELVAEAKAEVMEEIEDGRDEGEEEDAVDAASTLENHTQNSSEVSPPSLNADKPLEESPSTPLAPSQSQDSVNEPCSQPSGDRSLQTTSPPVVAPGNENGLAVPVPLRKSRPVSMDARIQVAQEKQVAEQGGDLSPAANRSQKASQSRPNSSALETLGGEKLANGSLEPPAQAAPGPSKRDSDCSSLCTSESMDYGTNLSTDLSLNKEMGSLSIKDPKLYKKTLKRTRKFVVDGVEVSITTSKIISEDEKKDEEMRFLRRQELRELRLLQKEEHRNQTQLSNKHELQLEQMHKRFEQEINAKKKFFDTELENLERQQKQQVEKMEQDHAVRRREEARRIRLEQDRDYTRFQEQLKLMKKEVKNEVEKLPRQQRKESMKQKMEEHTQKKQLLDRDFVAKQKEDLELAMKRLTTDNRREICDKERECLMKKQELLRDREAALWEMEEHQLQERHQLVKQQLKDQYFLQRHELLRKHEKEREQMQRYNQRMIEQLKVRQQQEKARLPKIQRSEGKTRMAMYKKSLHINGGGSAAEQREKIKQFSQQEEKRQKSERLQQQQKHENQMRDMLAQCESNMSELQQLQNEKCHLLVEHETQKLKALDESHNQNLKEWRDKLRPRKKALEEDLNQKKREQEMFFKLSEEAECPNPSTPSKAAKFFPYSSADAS
T3 sequence (O75116 whole entry): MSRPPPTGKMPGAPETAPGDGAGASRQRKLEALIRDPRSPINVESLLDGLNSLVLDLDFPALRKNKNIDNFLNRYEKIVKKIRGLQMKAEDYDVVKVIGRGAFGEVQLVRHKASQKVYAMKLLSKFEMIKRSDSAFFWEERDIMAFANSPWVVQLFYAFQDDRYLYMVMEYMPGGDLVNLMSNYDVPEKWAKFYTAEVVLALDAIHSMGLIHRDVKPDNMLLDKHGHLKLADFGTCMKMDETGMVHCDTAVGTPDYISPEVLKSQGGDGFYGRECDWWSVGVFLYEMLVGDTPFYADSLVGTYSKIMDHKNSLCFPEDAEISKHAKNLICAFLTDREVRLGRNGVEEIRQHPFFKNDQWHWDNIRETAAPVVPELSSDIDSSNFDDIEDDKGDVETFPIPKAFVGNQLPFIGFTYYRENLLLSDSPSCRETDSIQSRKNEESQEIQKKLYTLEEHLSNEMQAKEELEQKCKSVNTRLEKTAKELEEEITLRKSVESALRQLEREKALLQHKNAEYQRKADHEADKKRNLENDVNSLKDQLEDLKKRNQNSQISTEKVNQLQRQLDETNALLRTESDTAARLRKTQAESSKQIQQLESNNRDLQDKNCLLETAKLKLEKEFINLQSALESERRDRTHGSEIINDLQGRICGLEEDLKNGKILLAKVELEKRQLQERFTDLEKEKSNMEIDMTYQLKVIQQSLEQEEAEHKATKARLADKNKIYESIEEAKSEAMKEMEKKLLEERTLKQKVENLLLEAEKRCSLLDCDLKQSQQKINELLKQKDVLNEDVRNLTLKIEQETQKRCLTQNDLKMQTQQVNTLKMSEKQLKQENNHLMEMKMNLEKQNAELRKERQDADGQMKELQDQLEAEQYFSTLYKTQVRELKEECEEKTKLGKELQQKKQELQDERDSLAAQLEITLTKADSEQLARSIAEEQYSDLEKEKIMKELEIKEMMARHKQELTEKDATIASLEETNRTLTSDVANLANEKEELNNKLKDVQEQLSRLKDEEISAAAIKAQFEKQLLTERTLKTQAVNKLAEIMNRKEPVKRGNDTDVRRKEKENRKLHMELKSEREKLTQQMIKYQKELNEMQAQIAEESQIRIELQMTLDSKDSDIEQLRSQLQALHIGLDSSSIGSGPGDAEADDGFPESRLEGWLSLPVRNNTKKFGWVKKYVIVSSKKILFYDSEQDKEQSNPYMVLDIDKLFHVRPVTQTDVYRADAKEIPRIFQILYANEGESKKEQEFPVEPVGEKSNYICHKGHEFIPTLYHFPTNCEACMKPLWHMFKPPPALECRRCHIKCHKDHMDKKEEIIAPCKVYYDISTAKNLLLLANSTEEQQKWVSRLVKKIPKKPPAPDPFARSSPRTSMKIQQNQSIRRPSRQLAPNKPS
RSK1, sequence (Q15418 whole entry): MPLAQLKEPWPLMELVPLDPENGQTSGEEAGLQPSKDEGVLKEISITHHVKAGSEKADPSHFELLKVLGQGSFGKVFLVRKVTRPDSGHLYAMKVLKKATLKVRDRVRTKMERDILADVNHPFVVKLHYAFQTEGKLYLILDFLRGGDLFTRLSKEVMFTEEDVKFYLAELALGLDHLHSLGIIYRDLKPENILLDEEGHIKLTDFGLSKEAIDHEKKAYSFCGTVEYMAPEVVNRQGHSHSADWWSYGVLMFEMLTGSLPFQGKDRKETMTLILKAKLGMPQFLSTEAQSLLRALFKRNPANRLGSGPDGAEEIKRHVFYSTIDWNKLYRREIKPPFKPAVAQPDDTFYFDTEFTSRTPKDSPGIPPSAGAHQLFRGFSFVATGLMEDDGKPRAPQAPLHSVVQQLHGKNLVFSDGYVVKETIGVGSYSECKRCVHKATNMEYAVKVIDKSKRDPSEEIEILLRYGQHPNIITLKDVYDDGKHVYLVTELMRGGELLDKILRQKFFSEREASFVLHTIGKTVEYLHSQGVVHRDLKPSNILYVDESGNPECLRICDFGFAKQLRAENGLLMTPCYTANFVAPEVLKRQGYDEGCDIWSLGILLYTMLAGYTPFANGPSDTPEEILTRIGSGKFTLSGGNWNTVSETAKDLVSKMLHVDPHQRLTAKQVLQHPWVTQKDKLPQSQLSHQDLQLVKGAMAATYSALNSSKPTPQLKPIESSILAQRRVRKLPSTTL
MNK1, sequence (Q9BUB5 whole entry): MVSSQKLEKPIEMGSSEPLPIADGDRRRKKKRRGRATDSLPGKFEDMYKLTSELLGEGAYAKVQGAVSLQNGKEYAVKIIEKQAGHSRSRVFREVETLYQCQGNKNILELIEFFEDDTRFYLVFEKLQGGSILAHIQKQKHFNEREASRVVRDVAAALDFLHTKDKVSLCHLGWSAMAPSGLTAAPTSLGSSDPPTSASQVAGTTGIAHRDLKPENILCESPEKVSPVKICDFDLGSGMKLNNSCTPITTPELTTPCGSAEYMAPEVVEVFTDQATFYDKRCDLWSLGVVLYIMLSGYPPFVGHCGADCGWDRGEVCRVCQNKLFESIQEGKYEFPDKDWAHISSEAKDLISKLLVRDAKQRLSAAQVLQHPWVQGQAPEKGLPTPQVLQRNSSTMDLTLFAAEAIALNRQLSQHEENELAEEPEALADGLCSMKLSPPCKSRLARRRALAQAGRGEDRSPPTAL

Consider `C[C@@H](N)[C@H]1CC[C@H](C(=O)Nc2ccncc2)CC1` [Y-27632], for which the inhibition at 10 µM at STK10 [1] was 87%; on PKCtheta [2], 82%; at ROCK2 [3] it was 95%; at ARK5 it was 1%; on IKKbeta it was 82%; at MNK1 it was 78%. Besides, the inhibition at 10 µM at MST1 turned out to be 59%; on PKA it was 29%; on PKCbeta1, 52%; at PKCdelta, 55%; on PKG it was 64%; on PKG1b, 68%. The inhibition at 10 µM on PRKX was 78%; at RSK1, 51%; on RSK3 it was 82%; on ROCK1 [4], 94%.
For the molecule `Fc1ccccc1CNCc1ccc(-c2ccnc3[nH]ccc23)cc1` [OXA-06], the “Compound / OXA-06” value was determined as 94 on ROCK1 [5], 58 at STK10 [6] and 95 at ROCK2 [7]. Besides, the inhibition at 0.2 µM was 56% on ARK5; 56% on IKKbeta; 16% at MNK1; 19% at MST1; 98% at PKA; -3% on PKCbeta1. The inhibition at 0.2 µM on PKCdelta came out at 36%; at PKCepsilon it was 26%; on PKCtheta [8] it was 12%; on PKG, 72%; at PKG1b it was 73%; on PRKX it was 56%. The inhibition at 0.2 µM at ROCK1 [9] is 94%; at ROCK2 [10], 95%; on RSK1, 6%; on RSK2 it was 17%; on RSK3, 10%; on STK10 [11] it was 58%.
